Data taken from PubChem BioAssay (NCI).
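How tested: cells in 96-well plates exposed to compound for 48 hours at five concentrations. GI50: concentration for 50% inhibition of growth. TGI is the concentration that stops growth completely.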

Assays:
Experiment in all cases: inhibition of tumour cell growth, NCI panel, 48 h; in the data active = GI50 below about 0.43 µM; inactive = the rest
786-0 renal = system: 786-0 renal
A498 renal = system: A498 renal
A549 NSCLC = system: A549 NSCLC
ACHN renal = system: ACHN renal
BT-549 breast = system: BT-549 breast
CAKI-1 renal = system: CAKI-1 renal
CCRF-CEM leukemia = system: CCRF-CEM leukemia
COLO 205 colon = system: COLO 205 colon
DU-145 prostate = system: DU-145 prostate
EKVX NSCLC = system: EKVX NSCLC
HCT-116 colon = system: HCT-116 colon
HCT-15 colon = system: HCT-15 colon
HL-60(TB) leukemia = system: HL-60(TB) leukemia
HOP-62 NSCLC = system: HOP-62 NSCLC
HOP-92 NSCLC = system: HOP-92 NSCLC
HS 578T breast = system: HS 578T breast
HT29 colon = system: HT29 colon
IGROV1 ovarian = system: IGROV1 ovarian
K-562 leukemia = system: K-562 leukemia
KM12 colon = system: KM12 colon
LOX IMVI melanoma = system: LOX IMVI melanoma
M14 melanoma = system: M14 melanoma
MALME-3M melanoma = system: MALME-3M melanoma
MCF7 breast = system: MCF7 breast
MDA-MB-231 breast = system: MDA-MB-231 breast
MDA-MB-435 = system: MDA-MB-435
MDA-N = system: MDA-N
MOLT-4 leukemia = system: MOLT-4 leukemia
NCI-H23 lung = system: NCI-H23 lung
NCI-H460 lung = system: NCI-H460 lung
NCI-H522 lung = system: NCI-H522 lung
NCI/ADR-RES ovarian = system: NCI/ADR-RES ovarian
OVCAR-3 ovarian = system: OVCAR-3 ovarian
OVCAR-4 ovarian = system: OVCAR-4 ovarian
OVCAR-5 ovarian = system: OVCAR-5 ovarian
OVCAR-8 ovarian = system: OVCAR-8 ovarian
PC-3 prostate = system: PC-3 prostate
RPMI-8226 leukemia = system: RPMI-8226 leukemia
RXF 393 renal = system: RXF 393 renal
SF-268 CNS = system: SF-268 CNS
SF-295 CNS = system: SF-295 CNS
SF-539 CNS = system: SF-539 CNS
SK-MEL-2 melanoma = system: SK-MEL-2 melanoma
SK-MEL-28 melanoma = system: SK-MEL-28 melanoma
SK-MEL-5 melanoma = system: SK-MEL-5 melanoma
SK-OV-3 ovarian = system: SK-OV-3 ovarian
SN12C renal = system: SN12C renal
SNB-19 CNS = system: SNB-19 CNS
SR leukemia = system: SR leukemia
SW-620 colon = system: SW-620 colon
T-47D breast = system: T-47D breast
TK-10 renal = system: TK-10 renal
U251 CNS = system: U251 CNS
UACC-257 melanoma = system: UACC-257 melanoma
UACC-62 melanoma = system: UACC-62 melanoma
UO-31 renal = system: UO-31 renal
HCC-2998 colon = system: HCC-2998 colon
SNB-75 CNS = system: SNB-75 CNS

C=C1CC[C@@](C)(c2cc(Br)c(C)cc2OC(C)=O)[C@H]1C
31.8 µM: TGI (HOP-62 NSCLC)
29.4 µM: TGI (IGROV1 ovarian)
27.3 µM: TGI (ACHN renal)
31.2 µM: TGI (SNB-19 CNS)
30.5 µM: TGI (MALME-3M melanoma) | TGI (UO-31 renal)
28.3 µM: TGI (SF-268 CNS)
29.9 µM: TGI (SK-OV-3 ovarian)
28.7 µM: TGI (OVCAR-5 ovarian)
31.6 µM: TGI (A498 renal)
25.9 µM: TGI (MDA-MB-231 breast)
42.5 µM: TGI (HS 578T breast)
32.5 µM: TGI (RXF 393 renal)
23.8 µM: TGI (SN12C renal)
31 µM: TGI (LOX IMVI melanoma)
34.1 µM: TGI (BT-549 breast)
30.2 µM: TGI (K-562 leukemia) | TGI (UACC-257 melanoma)
24.2 µM: TGI (PC-3 prostate)
28 µM: TGI (MCF7 breast)
26.5 µM: TGI (A549 NSCLC)
16.2 µM: TGI (HOP-92 NSCLC)
26.6 µM: TGI (CCRF-CEM leukemia) | TGI (MDA-N)
27.1 µM: TGI (SR leukemia)
29.2 µM: TGI (OVCAR-3 ovarian) | TGI (SK-MEL-5 melanoma)
28.8 µM: TGI (CAKI-1 renal)
inactive: GI50 (786-0 renal) 12.6 µM | GI50 (A498 renal) 16.8 µM | GI50 (A549 NSCLC) 12.3 µM | GI50 (ACHN renal) 13.7 µM | GI50 (BT-549 breast) 19 µM | GI50 (CAKI-1 renal) 14.7 µM | GI50 (CCRF-CEM leukemia) 8.88 µM | GI50 (COLO 205 colon) 17.6 µM | GI50 (DU-145 prostate) 15.9 µM | GI50 (EKVX NSCLC) 14.7 µM | GI50 (HCT-116 colon) 8.81 µM | GI50 (HCT-15 colon) 15.1 µM | GI50 (HL-60(TB) leukemia) 11.9 µM | GI50 (HOP-62 NSCLC) 17.5 µM | GI50 (HOP-92 NSCLC) 3.49 µM | GI50 (HS 578T breast) 19.3 µM | GI50 (HT29 colon) 14.9 µM | GI50 (IGROV1 ovarian) 13.2 µM | GI50 (K-562 leukemia) 14 µM | GI50 (KM12 colon) 6.38 µM | GI50 (LOX IMVI melanoma) 14.8 µM | GI50 (M14 melanoma) 15.9 µM | GI50 (MALME-3M melanoma) 15.2 µM | GI50 (MCF7 breast) 12.8 µM | GI50 (MDA-MB-231 breast) 12.5 µM | GI50 (MDA-MB-435) 13.3 µM | GI50 (MDA-N) 11.7 µM | GI50 (MOLT-4 leukemia) 9.99 µM | GI50 (NCI-H23 lung) 13.9 µM | GI50 (NCI-H460 lung) 11.3 µM | GI50 (NCI-H522 lung) 15 µM | GI50 (NCI/ADR-RES ovarian) 12.1 µM | GI50 (OVCAR-3 ovarian) 14.6 µM | GI50 (OVCAR-4 ovarian) 3.63 µM | GI50 (OVCAR-5 ovarian) 15.1 µM | GI50 (OVCAR-8 ovarian) 13.2 µM | GI50 (PC-3 prostate) 11.1 µM | GI50 (RPMI-8226 leukemia) 9.55 µM | GI50 (RXF 393 renal) 14.8 µM | GI50 (SF-268 CNS) 13.2 µM | GI50 (SF-295 CNS) 10.7 µM | GI50 (SF-539 CNS) 13.5 µM | GI50 (SK-MEL-2 melanoma) 13.8 µM | GI50 (SK-MEL-28 melanoma) 11.7 µM | GI50 (SK-MEL-5 melanoma) 15.6 µM | GI50 (SK-OV-3 ovarian) 16.4 µM | GI50 (SN12C renal) 11.4 µM | GI50 (SNB-19 CNS) 15.5 µM | GI50 (SR leukemia) 11.2 µM | GI50 (SW-620 colon) 11.8 µM | GI50 (T-47D breast) 10.7 µM | GI50 (TK-10 renal) 12 µM | GI50 (U251 CNS) 15.2 µM | GI50 (UACC-257 melanoma) 16.1 µM | GI50 (UACC-62 melanoma) 7.06 µM | GI50 (UO-31 renal) 13.1 µM
29.7 µM: TGI (U251 CNS)
24 µM: TGI (SK-MEL-28 melanoma)
21.1 µM: TGI (KM12 colon)
25 µM: TGI (NCI-H460 lung) | TGI (NCI/ADR-RES ovarian) | TGI (TK-10 renal)
32.4 µM: TGI (SK-MEL-2 melanoma)
31.4 µM: TGI (NCI-H522 lung)
24.9 µM: TGI (RPMI-8226 leukemia)
20.1 µM: TGI (UACC-62 melanoma)
27.5 µM: TGI (MDA-MB-435)
20.8 µM: TGI (HCT-116 colon)
26.4 µM: TGI (SF-539 CNS)
31.3 µM: TGI (COLO 205 colon) | TGI (HCT-15 colon)
24.8 µM: TGI (MOLT-4 leukemia)
31.9 µM: TGI (DU-145 prostate)
17.4 µM: TGI (OVCAR-4 ovarian)
28.1 µM: TGI (HT29 colon)
24.6 µM: TGI (SW-620 colon)
28.2 µM: TGI (EKVX NSCLC) | TGI (HL-60(TB) leukemia) | TGI (NCI-H23 lung)
25.4 µM: TGI (786-0 renal)
27.8 µM: TGI (OVCAR-8 ovarian) | TGI (T-47D breast)
23.2 µM: TGI (SF-295 CNS)
30.6 µM: TGI (M14 melanoma)

O=C(CC(O)(C(F)(F)F)C(F)(F)F)c1cccs1
> 10 µM: TGI (786-0 renal) | TGI (A549 NSCLC) | TGI (ACHN renal) | TGI (BT-549 breast) | TGI (CAKI-1 renal) | TGI (CCRF-CEM leukemia) | TGI (COLO 205 colon) | TGI (DU-145 prostate) | TGI (HCC-2998 colon) | TGI (HCT-116 colon) | TGI (HCT-15 colon) | TGI (HL-60(TB) leukemia) | TGI (HOP-62 NSCLC) | TGI (HOP-92 NSCLC) | TGI (HS 578T breast) | TGI (HT29 colon) | TGI (IGROV1 ovarian) | TGI (K-562 leukemia) | TGI (KM12 colon) | TGI (LOX IMVI melanoma) | TGI (M14 melanoma) | TGI (MALME-3M melanoma) | TGI (MCF7 breast) | TGI (MDA-MB-231 breast) | TGI (MDA-MB-435) | TGI (MDA-N) | TGI (MOLT-4 leukemia) | TGI (NCI-H23 lung) | TGI (NCI-H522 lung) | TGI (NCI/ADR-RES ovarian) | TGI (OVCAR-3 ovarian) | TGI (OVCAR-4 ovarian) | TGI (OVCAR-8 ovarian) | TGI (PC-3 prostate) | TGI (RPMI-8226 leukemia) | TGI (SF-268 CNS) | TGI (SF-295 CNS) | TGI (SF-539 CNS) | TGI (SK-MEL-28 melanoma) | TGI (SK-MEL-5 melanoma) | TGI (SK-OV-3 ovarian) | TGI (SN12C renal) | TGI (SNB-19 CNS) | TGI (SNB-75 CNS) | TGI (SR leukemia) | TGI (SW-620 colon) | TGI (T-47D breast) | TGI (TK-10 renal) | TGI (U251 CNS) | TGI (UACC-257 melanoma) | TGI (UACC-62 melanoma)
